Measured values: US20070293517A1, “Derivatives Of Chemotherapeutic Agents With A Formaldehyde Releasing Moiety” (RAMOT AT TEL AVIV UNIVERSITY LTD., priority 2004, published 2007)

Experiments:
[1] = tested on: histone acetylation; assay: Histone acetylation in treated cells; assay type: cell-based
Method: Western blot analysis: Whole cell tissue lysates or acid extracted histones were solubilized in a 4-fold concentrated sample buffer and […] protein samples were separated by SDS-PAGE. The proteins were transferred to a nitrocellulose membrane (Schleicher & Schuell, Germany) and probed with the primary antibodies as indicated, followed by incubation with an HRP-goat anti-rabbit IgG secondary antibody. Visualization of the bound HRP-goat anti-rabbit IgG was performed using the enhanced chemiluminescence that was done using Western Blotting Luminol reagent (cat No. SC-2048, Santa Cruz, Calif., US). Equal amounts of reagent A and B were mixed, and added to the nitrocellulose membrane for 1 minute. Excess liquid was absorbed and the membrane was exposed for 5 minutes to Chemiluminescence BioMax light film (cat. No. 868 9358, Kodak, USA). The intensity of the bands was measured with a Versa Doc instrument with Quantityl program (Bio-Rad, USA). The fold increase of each specific protein was determined by the ratio of band intensities of treated and untreated cells, normalized to loading control (actin or histone H3).

[2] = tested on: HT-29; assay: Proliferation assay, HT-29 cells; assay type: cell-based, human
[3] = tested on: sensitive and resistant uterine cancer cells (MES-SA, MES-SA DXS); assay: Proliferation/survival, sensitive and resistant uterine cancer cells (both lines); assay type: cell-based, human
Description: (§1) Cells: The human breast cancer cell lines MCF-7 and MCF-7 DX, were obtained from Dr. R. Supino (Laboratorio Oncologia, Milano, Italy); the murine 3LLD122 highly metastatic Lewis lung carcinoma cell line was obtained from Dr. Eisenbach L, the Weizmann Inst., Israel. The following cell lines were purchased from the ATCC, USA: CT-26, an N-nitroso-N-methylurethane-(NNMU) induced murine (BALB-C) colon carcinoma; Panc02, a mouse (C57/Bl) pancreas adenocarcinoma; HT-49, a human colorectal adenocarcinoma; LS1034, a multidrug resistant human colorectal carcinoma; BxPC-3 human pancreas adenocarcinoma; MES-SA and MES-SA-DXS, human uterine sarcoma sensitive and multidrug resistant, respectively; and Human prostate carcinoma 22RV1, a subclone of CWR22 cells.
(§2) Proliferation assay: cells at a density of 3-5×10^4 cells/ml in 200 μl medium supplemented with 10% FCS were seeded in tissue culture 96-well plates for 24 hours, and were then exposed for 72 hours to a novel derivative of a chemotherapeutic agent (in quadruplicate) as specified. After 3 days, the cells were rinsed with PBS, and fixed with ethanol (70%) for 30 minutes. The ethanol was thereafter discarded, 200 μl of 10 μg/ml HOECHST fluorescent dye (Sigma) solubilized in PBS were added and the fluorescence was measured at 390-460 nm with a FluoStar fluorometer. MTT solution (10 ml of 5 mg/ml MTT (Sigma) in PBS) was added, and the plate was incubated for 3 hours. Formazan crystals were dissolved with 140 ml of 0.04 HCl-isopropanol. The optical density of the wells was measured with a microplate reader at 540 nm.
(§3) IC50 and IC90 values were determined from the best-fitted curve where the percentages of survival were 50 or 90 respectively.

[4] = tested on: CT-26; assay: Proliferation assay, CT-26 cells; assay type: cell-based, murine
Description: as §1
(§4) The cells were maintained in DMEM growth medium supplemented with 10% heat inactivated fetal calf serum, 2 mM glutamine, penicillin (250 units/ml) and streptomycin (125 μg/ml) in a humidified 5% CO2/air atmosphere at 37° C.
as §2, §3

[5] = tested on: MES SA DXS; assay: Proliferation assay, MES SA DXS cells; assay type: cell-based, human; details: MES SA DXS
Description: as §1, §4, §2, §3

[6] = tested on: LS-1034; assay: Proliferation assay, LS-1034 cells; assay type: cell-based, human
Description: as §1, §4, §2, §3

[7] = tested on: colon cancer cells (LS-1034 and HT-29); assay: Survival of colon cancer cells (both lines); assay type: cell-based, human
Method: (§5) Cells: The human breast cancer cell lines MCF-7 and MCF-7 DX, were obtained from Dr. R. Supino (Laboratorio Oncologia, Milano, Italy); the murine 3LLD122 highly metastatic Lewis lung carcinoma cell line was obtained from Dr. Eisenbach L, the Weizmann Inst., Israel. […]
as §2, with “After 3 days, the cells were rinsed with PBS, and fixed with ethanol (70%) for 30 minutes.” left out, “MTT solution (10 ml of 5 mg/ml MTT (Sigma) in PBS) was added, and the plate was incubated for 3 hours. Formazan crystals were dissolved with 140 ml of 0.04 HCl-isopropanol.” left out
as §3

[8] = tested on: BXPC-3; assay: Proliferation assay, BXPC-3 cells; assay type: cell-based, human
Description: as §1, §4, §2, §3

[9] = tested on: various cell lines; assay: Dose response studies in various cell lines, absence and presence of semicarbazide; assay type: cell-based; details: semicarbazide 0.5 mM
Method: as §2
Semicarbazide sensitive amine oxidase is a source of formaldehyde and is therefore a marker for the effect of formaldehyde. It has been shown that semicarbazide traps formaldehyde and reduces its concentration inside the cell (Nudelman et al. J. Med. Chem., 2005, 48, 1047-1054). Thus, the critical role of formaldehyde can be confirmed by reversal of formaldehyde-mediated effects by the addition of semicarbazide.
Tables 3 and 4 below, as well as FIGS. 7A, 7B and 8A-8D present the dose response studies performed with various cell lines in the absence and presence of semicarbazide, the formaldehyde trapping agent.

[10] = tested on: colon carcinoma cells; assay: Viability of colon carcinoma cells (FIG. 12); assay type: cell-based
Method: as §2
(§6) Apoptosis assay: Cells (2×10^5 cells/ml) were seeded in 24-well plates and incubated with a derivative of a chemotherapeutic agent according to the present embodiments, as specified, for 24 hours. The cells were thereafter collected and double-stained with annexin V-FITC and propidium iodide, according to the manufacturer's instructions (MBL, Japan). Alive, apoptotic and total dead cells were quantitated by flow cytometry using a FACS calibur cytometer (Becton Dickinson).

[11] = tested on: Panc 02; assay: Proliferation assay, Panc 02 cells; assay type: cell-based; details: Mus musculus, Panc02
Description: as §1, §4, §2, §3

[12] = tested on: MES SA; assay: Proliferation assay, MES SA cells; assay type: cell-based, human
Description: as §1, §4, §2, §3

[13] = tested on: human colon carcinoma cells (LS1034); assay: Xenograft flank colon carcinoma model, LS1034; assay type: in vivo; details: nude mice sc implanted with LS1034
Method: (§7) Xenograft flank colon carcinoma models: Eight weeks old, male CD1 nude mice (Harlan, Israel) were inoculated sc in the flanks with 5×10^6 HT29 or LS1034 cells. When tumor volume reached 50-100 mm^3, treatment with derivatives of chemotherapeutic agents according to the present embodiments commenced and was given by gavage five times a week for the duration of the experiment at the specified doses. Tumor volume (determined by caliper) and body weights were measured twice weekly. Tumor volume was measured (mm) using the formula for an ellipsoid sphere: Length×Width^2/2=Volume (mm)^3
Survival was estimated by the Kaplan-Meier curves, and the difference in survival between the groups was analyzed by Wilcoxon's test and using a log-rank test chi-square (JMP 5.0.1.2, Chicago, Ill.).

[14] = tested on: HT-29 human colon carcinoma; assay: Xenograft flank colon carcinoma model, HT29; assay type: in vivo; details: nude mice
Method: as §7, with “(mm)^3 This commonly used formula was also used to calculate tumor weight, assuming unit density (1 mm^3=1 mg). Serum PSA or CEA: […] At the end of the experiment blood samples were drawn from the eyes of mice (anesthetized slightly by inhalation of ether) or from the hearts of sacrificed animals.” for “(mm)^3”

[15] = tested on: 3LLD122 Lewis lung carcinoma; assay: Metastatic lung model (Lewis lung carcinoma); assay type: in vivo, mice
Method: Metastatic lung model: Female C57/BL mice, 6-10 weeks (Harlan, Israel) were […] implanted (in the tail vein) with 5×10^5 3LLD122 cells. Treatment with a derivative of a chemotherapeutic agent according to the present embodiments, for five days per week, commenced 24 hours post cell implantation. After 21 days the animals were sacrificed and their lung lesions were scored under an illuminated magnifying glass.

[16] = tested on: prostate carcinoma cells 22RV; assay: Viability of prostate carcinoma cells 22RV; assay type: cell-based, human
Method: as §5
as §2, with “After 3 days, the cells were rinsed with PBS, and fixed with ethanol (70%) for 30 minutes.” left out, “MTT solution (10 ml of 5 mg/ml MTT (Sigma) in PBS) was added, and the plate was incubated for 3 hours. Formazan crystals were dissolved with 140 ml of 0.04 HCl-isopropanol.” left out
as §6, with “The cells were thereafter collected and double-stained with annexin V-FITC and propidium iodide, according to the manufacturer's instructions (MBL, Japan).” left out

| Structure (SMILES) | IC90 ([2]; HT-29, + SC 500 μM) [µM] | IC90 ([2]; Homo sapiens, HT-29) [µM] | IC50 ([2]; Homo sapiens, HT-29, HT-29) [µM] | maximal cell killing achieved [3] [%] | IC90 ([4]; CT-26, + SC 500 μM) [µM] | IC50 ([4]; Mus musculus, CT26, CT-26) [µM] | IC90 ([4]; Mus musculus, CT26, CT-26) [µM] | IC50 ([5]; Homo sapiens) [µM] | IC90 ([5]; Homo sapiens) [µM] | IC50 ([5]; + SC 500 μM) [µM] | IC90 ([5]; + SC 500 μM) [µM] | IC90 ([6]; Homo sapiens, LS-1034) [µM] | IC50 ([6]; Homo sapiens, LS-1034, LS-1034) [µM] | IC90 ([6]; LS-1034, + SC 500 μM) [µM] | IC50 ([8]; + SC 500 μM) [µM] | IC90 ([8]; + SC 500 μM) [µM] | IC50 ([8]; Homo sapiens) [µM] | IC90 ([8]; Homo sapiens) [µM] | reduction of cell killing by co-treatment with semicarbazide [9] | effect on cancer cell viability (% of control) [10] | also measured |
| --- | --- | --- | --- | --- | --- | --- | --- | --- | --- | --- | --- | --- | --- | --- | --- | --- | --- | --- | --- | --- | --- |
| CCCC(=O)OCn1c(=O)c(F)cn(C2CCCO2)c1=O [AN-420, 5-fluoro-2,3-dihydro-3-((R)-tetrahydrofuran-2-yl)-2,6-dioxopyrimidin-1(6H)-yl)methyl butyrate] | 138 ± 30 | 84 ± 21 | 35 ± 5 | 100 | 94 ± 30 | 27 ± 4 | 76 ± 14 | 54 ± 5 | 95 ± 8 | 115 ± 29 | 312 ± 116 | 79 ± 23 | 42 ± 7 | 105 ± 29 | 88 ± 6 | 280 ± 36 | 74 ± 4 | 141 ± 5 | substantially reduced the cell killing | significantly more effective than tegafur | histone acetylation in treated cells [1]: increase of histone acetylation; IC50 ([2]; HT-29, + SC (semicarbazide) 500 μM): 51 ± 5 µM; IC50 ([4]; CT-26, + SC 500 μM): 34 ± 10 µM; IC50 ([6]; LS-1034, + SC 500 μM): 52 ± 8 µM; fold more potent than tegafur, based on IC90 values [7]: ≥ 10 fold; IC50 [11]: 46 ± 3 µM; IC90 [11]: 149 ± 19 µM; IC50 ([12]; + SC 500 μM): 92 ± 14 µM; IC90 ([12]; + SC 500 μM): 214 ± 80 µM; IC50 ([12]; Homo sapiens): 79 ± 22 µM; IC90 ([12]; Homo sapiens): 177 ± 77 µM |
| O=c1c(F)cn([C@H]2CCCO2)c(=O)n1CO [AN-436, 5-fluoro-1-((R)-tetrahydrofuran-2-yl)-3-(hydroxymethyl)pyrimidine-2,4(1H,3H)-dione] | 303 ± 7 | 115 ± 7 | 67 ± 2 | 100 | 296 ± 28 | 99 ± 5 | 170 ± 9 | 63 ± 4 | 101 ± 2 | 203 ± 75 | 356 ± 144 | 153 ± 16 | 84 ± 8 | 252 ± 30 | 160 ± 17 | 460 ± 78 | 81 ± 9 | 191 ± 47 | up to 3.5 folds | – | IC50 ([2]; Homo sapiens, HT-29, HT-29, + SC (semicarbazide) 500 μM): 164 ± 12 µM; survival after 82 days [13]: 75%; IC50 ([4]; Mus musculus, CT26, CT-26, + SC 500 μM): 132 ± 26 µM; CEA level in serum [14]: reduced the level significantly; tumor growth inhibition ([14]; P<<0.001): substantially inhibited tumor growth; inhibitory effect on tumor growth compared with tegafur ([14]; p<0.05): significantly higher than the parent compound; IC50 ([6]; Homo sapiens, LS-1034, LS-1034, + SC 500 μM): 132 ± 7 µM; fold more potent than tegafur, based on IC50 values [7]: ≥ 2.5 fold; antimetastatic activity (number of lung lesions) [15]: significantly evident; IC50 [11]: 96 ± 9 µM; IC90 [11]: 219 ± 25 µM; IC50 ([12]; + SC 500 μM): 182 ± 18 µM; IC90 ([12]; + SC 500 μM): 456 ± 189 µM; IC50 ([12]; Homo sapiens): 71 ± 12 µM; IC90 ([12]; Homo sapiens): 127 ± 19 µM |
| CCCC(=O)OCn1c(=O)cc[nH]c1=O [AN-439, (2,3-Dihydro-2,6-dioxopyrimidin-1(6H)-yl)methyl butyrate] | – | – | – | – | – | – | – | – | – | – | – | – | – | – | – | – | – | – | – | reduced cell viability in a dose dependent manner | – |
| CCCC(=O)OCN1C(=O)CCC(N2C(=O)c3ccccc3C2=O)C1=O (stereo not drawn) [AN-438, 2-(1-butroyloxymethyl-2,6-dioxopiperidin-3-yl)isoindoline-1,3-dione] | – | – | – | – | – | – | – | – | – | – | – | – | – | – | – | – | – | – | – | – | reduction of viability compared with thalidomide ([2]; human colon cells HT-29): significantly more effective in reducing the viability; reduction of viability compared with thalidomide ([16]; prostate carcinoma cells 22RV): significantly more effective in reducing the viability; effect on viability on addition of semicarbazide ([16]; prostate carcinoma cells, 0.5 mM semicarbazide): abrogated the effect |
